According to patent US20080275134A1, “Methods for Treatment of Retinal Degenerative Disease” (University of Washington, priority 2005, published 2008):
Values belong to the molecule of their own block, whether it stands above or below them.

How the values were obtained:
[1] = tested on: regeneration of vision chromophore (11-cis-retinal); experiment: regeneration of 11-cis-retinal in mouse eyes after gavage and light bleach, HPLC retinoid analysis; format: in vivo; settings: 50 mg/kg, tested in parallel with Ret-NH2
Protocol: Mice were gavaged with all-trains-Ret-NH2, exposed to intense light for 20 min, and then allowed to recover in the dark for 5 hours. The total amount of different forms of retinoids in all experiments was unchanged. […] For this experiment mice were treated with both 9-cis-retinol and all-trans-Ret-NH2, and bleached after 24 hours, and were allowed to recover for 5 hours in the dark. The presence of 9-cis-retinal was confirmed in treated animals (see peaks 4 and 4′ in FIG. 4A bottom panel, corresponding to syn- and anti-9-cis-retinal oximes, respectively). 11-cis-Retinal was not reduced and/or esterified after treatment with Ret-NH2. […] This supports the idea that Ret-NH2 is a specific inhibitor of the isomerization reaction.
A. Chromatographic separation of nonpolar retinoids from WT mouse eyes. Mice were gavaged with all-trans-Ret-NH2 24 hours prior to bleaching for 20 min at 150 cd·m^−2 W in the Ganzfeld chamber. Regeneration of 11-cis-retinal was allowed for 24 hours in the dark, and retinoids were extracted from the eye and separated by normal phase HPLC as described in Materials and Methods. The peaks were identified based on elution time and absorption spectra correspond to the following retinoids: 1, all-trans-retinyl esters; 2,2′, syn- and anti-11-cis-retinal oximes; 3, syn-all-trans-retinal oxime; 4,4′, syn- and anti-9-cis-retinal oximes; 5, all-trans-retinol. B. Changes of 11-cis-retinal oxime levels at increasing doses of all-trans-Ret-NH2 during 5 hours or 24 hours of dark adaptation. Square indicates the level of 11-cis-retinal oximes that was present in mice gavaged with vegetable oil without retinoids just after bleaching, and arrow indicates the increase of visual chromophore during 5 hours of dark adaptation. Triangles correspond to the level of 11-cis-retinal found in the mice gavaged with 50 mg/kg of 13-cis-RA. C and D. Single flash ERG responses of increasing intensity for all-trans-Ret-NH2 treated mice and control mice. Serial responses to increasing flash stimuli were obtained for all-trans-Ret-NH2 treated and control mice for selected intensities (C) and plotted as a function of a-wave and b-wave versus varying light intensities under dark-adapted conditions (D) before bleach and at 5 hours and 24 hours after bleach. The dark-adapted mice were bleached with intense constant illumination (150 cd·m^−2) for 20 min. […] SE bars are shown.
Chromatographic separation of nonpolar retinoids from WT mouse eyes. Mice were gavaged with 100 mg/kg of all-trans-Ret-NH2 24 hours prior to bleaching. Mice were next exposed to 500 cd m^−2 for 48 min bleaching in the Ganzfeld chamber. Regeneration of 11-cis-retinal was allowed for 24 hours in the dark, and retinoids were extracted from the eye and separated by normal phase HPLC as described in Materials and Methods. The peaks identified based on elution time and absorption spectra correspond to the following retinoids: 1, all-trans-retinyl esters; 2,2′, syn- and anti-1-cis-retinal oximes; 3,3′ syn- and anti-all-trans-retinal oximes; 4, all-trans-retinol.
Mice were gavaged with the solution of inhibitor in vegetable oil (control—non-treated, RPN—retinylpalmitamide, RAN—retinylacetamide, Ret—NH2-all-trans-retinylamine), kept in dark for 16 hours, then light stimulated and kept in dark for additional 5 hours before their eyes were analyzed.
Mouse retinoid extraction and analysis—Retinoid analysis was performed under dim red light as described previously (Maeda et al., J. Neurochem 85:944-956, 2003; Van Hooser et al., J Biol Chem 277:19173-82, 2002). Mice were gavaged with retinoids as described previously (Van Hooser et al., J Biol Chem 277:19173-82, 2002).

A2E formation = settings: in vivo; cited from earlier work
11-cis-RDH = settings: cited from earlier work
RAR = experiment: F9-RARE-lacZ reporter cell line, β-galactosidase activity (DR5 elements); format: cell-based; settings: 24 hours treatment, micromolar concentrations
Text: 13-cis-RA can isomerize to all-trans-RA and then to 9-cis-RA, both of which are potent ligands of the RA receptor (RAR). 9-cis-RA also binds and activates the retinoid X receptor (RXR). This contributes to the toxicity of the RAR and RXR ligands. It was investigated whether Ret-NH2 can activate these nuclear receptor using reporter-cells as described previously (20). A β-galactosidase activity assay was employed to examine if all-trans-RA, 9-cis-RA, and Ret-NH2 are agonists for these nuclear receptors.
F9-RARE-lacZ cells express endogenous RAR and RXR and were transfected with a construct of lacZ under the control of a minimal promoter and upstream DR5 elements (1). F9-RARE-lacZ cells were treated with different doses of all-trans-RA or Ret-NH2 for 24 hours after which the cells were harvested and the β-galactosidase activity was measured using the soluble substrate o-nitrophenyl β-D-galactopyranoside. The colorless substrate was cleaved by β-galactosidase to yellow colored o-nitrophenol, whose absorbance was measured at 420 nm using a spectrophotometer. The experiment was repeated twice with similar results. The RARE reporter cell line F9-RARE-lacZ (SIL15-RA) was a kind gift from Dr. Michael Wagner (SUNY Downstate Medical Center) and Dr. Peter McCaffery (University of Massachusetts Medical School). […]

CYP26A1 = target: T1, CYP26A1 (Homo sapiens, UniProt O43174); experiment: oxidation in HEK-293 cells transfected with CYP26A1 cDNA; format: in vitro ADME
T1 construct: expressed in transfected cells; host or cells: HEK-293
T1 sequence (O43174 1-497): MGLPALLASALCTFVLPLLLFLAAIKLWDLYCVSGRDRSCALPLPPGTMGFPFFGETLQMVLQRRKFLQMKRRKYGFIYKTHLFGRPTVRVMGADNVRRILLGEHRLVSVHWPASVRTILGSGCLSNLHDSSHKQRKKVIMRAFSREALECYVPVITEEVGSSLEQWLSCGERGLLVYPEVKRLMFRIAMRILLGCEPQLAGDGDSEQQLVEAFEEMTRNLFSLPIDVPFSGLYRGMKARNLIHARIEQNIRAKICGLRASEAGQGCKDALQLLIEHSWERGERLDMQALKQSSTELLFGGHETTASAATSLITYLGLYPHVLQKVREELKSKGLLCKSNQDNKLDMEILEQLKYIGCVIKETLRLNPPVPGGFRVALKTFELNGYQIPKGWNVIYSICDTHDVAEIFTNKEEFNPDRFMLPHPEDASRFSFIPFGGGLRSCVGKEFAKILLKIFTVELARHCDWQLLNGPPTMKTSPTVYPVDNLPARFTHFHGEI
Text: Next, the RA oxidation pathway was investigated. […] In addition to secretion, Ret-NH2 might be degraded first by deamination to all-trans-retinol/retinal, which was seen to increase in Ret-NH2 treated cells. […] These observations explain the long-lasting effect of RetNH2, as the amide is stored and hydrolyzed back to the free amine.

SMILES: CC1=C(/C=C/C(C)=C/C=C/C(C)=C\C(=O)O)C(C)(C)CCC1 [13-cis-RA, 13-cis-retinoic acid]
- effect on chromophore recovery at 50 mg/kg [1]: ineffective
- formation of A2E (A2E formation): blocked the formation of A2E
- inhibition of 11-cis-RDH (11-cis-RDH): inhibits 11-cis-RDH

SMILES: CC1=C(/C=C/C(C)=C/C=C/C(C)=C/C(=O)O)C(C)(C)CCC1 [all-trans-RA, All-trans-retinoic acid, reference compound]
- activation of transcription through RAR (DR5 RARE) (RAR): activated transcription

- oxidation by CYP26A1 (CYP26A1): readily oxidized
SMILES: CC1=C(/C=C/C(C)=C/C=C/C(C)=C/C(=O)O)C(C)(C)CCC1 [retinoic acid, reference compound]
